Tests used:
[1] = osteoporosis prone postmenopausal women; cited from earlier work
[2] = cited from earlier work; for effectiveness in raising urinary citrate compared with tricalcium dicitrate: vs tricalcium dicitrate
[3] = Calcium absorption from oral tablets (increment in urinary calcium during the second two hours, Example 5); details: 400 mg elemental calcium, ten normal volunteers, SD
Procedure: Calcium absorption was measured from the increment in urinary calcium during the second two hours following the administration of the oral calcium tablets.
The calcium absorption was measured from the increment in urinary calcium during the second two hours following oral calcium load, expressed as mg calcium/dl glomerular filtrate (GF).

[4] = cited from earlier work
[5] = Bulk density of the dried granular composition; assay type: physicochemical
Procedure: 38.4 grams of citric acid powder and 40 grams of calcium carbonate were thoroughly mixed in a large beaker. 36 grams of lactic acid, 50 weight percent solution, was slowly added with rapid stirring. 40 grams of water was then introduced slowly in small portions, each portion was added after the CO2 evolution slowed or ceased. After drying, the material was sized and found to have a bulk density greater than 1.1 g/cc. Bulk density was determined by an Archimedean method. This dense granular dicalcium citrate-lactate was subjected to compression tableting to form tablets containing 10 meq (200 milligrams) of calcium, and 7.5 meq (472 milligrams) of citrate, with a size of 0.29 (7.47 millimeters) inch by 0.74 (1.9 centimeters) inch.
The dicalcium citrate-lactate tablets of the present invention were also produced on a large scale. 38.4 kilograms of citric acid powder and calcium carbonate were placed in a Colton 7 cubic ft. ribbon mixer and blended for 2 minutes. Thirty six kilograms of the lactic acid, 50 weight percent solution, were added in approximately three equal portions, 3 minutes apart with continuous mixing. Water (40 kilograms) was added in approximately four equal portions 2-3 minutes apart with continuous mixing. Mixing continued for 10 minutes. The resultant granular and lumpy material was passed through a Fitzmill, knives forward, with no screen, trayed and dried at 212° F.-221° F. (100° C.-105° C.) for three hours. The dried product was sized and its bulk density was determined to be greater than 1.1 g/cc. The sizing was done using a Fitzmill Model No. 6 with a 31262AA screen.
The procedure previously described in Example 2 was followed with the exception of calcium carbonate being replaced by calcium oxide. Dicalcium citrate-lactate having a bulk density of greater than 0.7 g/cc was produced.
The procedure previously described in Example 2 was followed with the exception of calcium carbonate being replaced by calcium hydroxide. Calcium citrate lactate having a bulk density of greater than 0.8 g/cc was produced.

[6] = cited from earlier work; remark: listed apart in the source

Compound: estrogen
- prevention of further bone losses [1]: further bone losses in osteoporosis prone postmenopausal women may be prevented

Compound: O=C(O)CC(O)(CC(=O)O)C(=O)O [tricalcium dicitrate]
- urinary citrate ([2]; Harvey, Zobitz and Pak 1985): increased urinary citrate
- calcium absorption (increment in urinary calcium) [3]: 0.044±0.051 mg/dl GF
- precipitation out of simulated duodenal juice [4]: did not precipitate out of simulated duodenal juice

Compound: CC(O)C(=O)[O-].O=C([O-])CC(O)(CC(=O)[O-])C(=O)[O-].[Ca+2].[Ca+2] [dicalcium citrate-lactate]
- bulk density ([5]; from calcium carbonate, large batch (Example 2)): greater than 1.1 g/cc
- bulk density ([5]; from calcium carbonate, small batch (Example 1), Archimedean method): greater than 1.1 g/cc
- bulk density ([5]; from calcium hydroxide, large batch (Example 4)): greater than 0.8 g/cc
- bulk density ([5]; from calcium oxide, large batch (Example 3)): greater than 0.7 g/cc

Compound: O=C(O)O [calcium carbonate]
- prevention of further bone losses [1]: to a lesser extent

Compound: CC(O)C(=O)O (stereo not drawn) [calcium lactate]
- effectiveness in raising urinary citrate compared with tricalcium dicitrate [2]: not as effective as tricalcium dicitrate

Compound: O=C(O)[C@H](O)[C@@H](O)[C@H](O)[C@H](O)CO [calcium gluconate]
- effectiveness in raising urinary citrate compared with tricalcium dicitrate [2]: not as effective as tricalcium dicitrate
- aqueous solubility [6]: high aqueous solubility
